The results in this text go back to US12503426B2, “Synthetic derivatives of oleoyl-lysophosphatidylinositol (oleoyl-LPI) and uses thereof” (LIPOVEXA SRL, priority 2017, dated 2025).

One test concerns the target T1, human GPR119 (Homo sapiens, UniProt Q8TDV5).
T1 construct: expressed in transfected cells; host or cells: COS-7 cells, calcium phosphate transfection
T1 sequence (Q8TDV5 1-335): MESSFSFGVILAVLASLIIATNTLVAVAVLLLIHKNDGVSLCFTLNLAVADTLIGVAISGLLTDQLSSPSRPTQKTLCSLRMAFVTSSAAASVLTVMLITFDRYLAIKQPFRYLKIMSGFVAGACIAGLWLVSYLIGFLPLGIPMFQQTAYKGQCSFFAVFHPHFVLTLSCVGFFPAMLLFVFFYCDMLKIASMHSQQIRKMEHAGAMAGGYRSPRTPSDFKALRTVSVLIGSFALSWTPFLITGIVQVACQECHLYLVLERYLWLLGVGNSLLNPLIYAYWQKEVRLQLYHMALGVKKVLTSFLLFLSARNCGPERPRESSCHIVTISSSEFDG
Put plainly: cAMP assay in GPR119 transfected COS-7 cells. Type of test: cell-based. The following applies: COS-7 cells expressing human GPR119, agonists 30 min; read-out: EC50, production of cAMP. How it is done:
COS-7 cells were cultured in Dulbecco's modified Eagle medium (DMEM) 1885 supplemented with 10% FBS, […] L-glutamine and 180 IU/ml penicillin+[…] streptomycin (Pen Strep) (Life Technologies, CA, USA) at 37° C. and 10% CO2. The COS-7 cells were transiently transfected with GPR119 or pcDNA by the calcium phosphate transfection method for 5 hours in 37° C., 10% CO2 as described by Kissow H, Hartmann B, Hoist J J, Viby N E, Hansen L S, Rosenkilde M M, Hare K J, Poulsen S S. Regul Pept. 2012. Vol: 179(1-3), pp 91-100; the disclosure of which is incorporated herein in its entirety by way of reference.
COS-7 cells were transfected with about 40 μg GPR119 DNA or pcDNA3 per […] flask. One day after transfection, the cells were seeded out (about 35,000 cell/well) in a 96 well white plate (Perkin Elmer, Massachusetts, USA). The cells were washed twice the following day and incubated for 30 min, at 37° C. with HBS and 1 mM IBMX (Sigma Aldrich, USA). Agonists were added for 30 min in the assay medium. The Hithunter® cAMP XS+ (DiscoveRx, Fremont, USA) was carried out by following the manufacturer's instructions.
Accordingly, the work outlined in this example evaluates whether activation of GPR119 by oleoyl-LPI in enteroendocrine L cell affect the proglucagon gene expression by monitoring the CREB activity. […]
A general note: cAMP levels reflect the balance of adenylyl cyclase and phosphodiesterase activity.

The test system of test [1] is Glutag and NCI-H761 cells. As to the kind of experiment: Dose response of GLP-1 release at different glucose concentrations. In kind it is cell-based. How it is done:
Panels A and B show results of dose response of GLP-1 release in different glucose concentration of 5 mM (panel A) and 10 mM (panel B). The dose response of GLP-1 released was normalised of number of cells measured in parallel. Glutag and […] cells were incubated with vehicle alone, oleoyl-LPI, OEA, LPC forskolin (10 μM) and PMA (1 μM) as positive control for 2 hours. Results were normalised as percentage of cell treated with vehicle (control). For panels A and B data are shown as means±SEM of n=3 from independent experiments performed in duplicates. Student t-test: *p<0.05, **P<0.01. Panel C show results of dose response of GLP-1 release in a glucose concentration of 20 mM.
(§1) Approximately 80,000 Glutag cells were plated in poly-L-lysine-coated 24-well culture plates and grown to about 80% confluence. NCI-H716 cells were seeded on growth factor reduced Matrigel™ (Becton Dickinson, Bedford, MA) in DMEM medium, supplemented with 10% FBS the day before the experiment. For NCI-H716 cells, approximately 25,000 cells were needed for this secretion experiment in order to have good stimulation with lower basal GLP-1 secretion. In brief, Glutag and NCI-H716 cells were washed twice and then incubated for 2 h with FBS-free DMEM containing 1% (M:C) alone (negative control), 10 μM forskolin as positive control (Sigma-Aldrich), or with different concentrations of Oleoyl-LPI. M:C was used as a solvent to prepare stock solutions of fatty acid derivatives and inhibitors. For secretion experiments, medium and cells were collected separately.
To determine the effect of glucose in oleoyl-LPI induced GLP-1 secretion, the inventors conducted dose-response experiment in the presence of 5 mM and 10 mM glucose in the secretion medium with the results outlined in FIG. 2A and FIG. 2B.

The subject of test [2] is colonic cells of the GI tract obtained from guinea pig. As to the kind of experiment: Ex vivo GLP-1 biosynthesis and secretion, guinea pig GI tract cells. Type of test: cell-based. As to conditions: Cavia porcellus; ex vivo incubation 2 hours, quadruplicates. The method, then: To test for this, a pregnant guinea pig was anesthetized with isoflurane and sacrificed via intra-cardial injection of pentobarbital. Colon and rectum were quickly collected and intraluminal content washed out with ice-cold HBSS. After a thorough cleansing from the faecal material, and gentle scraping of the internal mucosa, the tissue was minced into 3 to 5-millimetre pieces and resuspended into 50 ml of ice cold HBSS. Pellet was spun down and washed again in 50 ml of ice-cold HBSS. Supernatant was carefully removed, and the epithelial fragments were then resuspended for 30 minutes at 37° C. into a 5 ml solution of HEPES 25 mM, collagenase-P 1 mg/ml in HBSS, pH 7.4 at 37° C.
The tissue was then pelleted and resuspended further for about 30 to 40 additional minutes at 37° C. within a 10 ml solution of 1 mg/ml collagenase-P as above.
After the digestion, about 40 ml of pre-warmed DMEM complete media was added (FBS 10%, glucose 4.5 g/L, glutamine 4 mM, sodium pyruvate 1 mM, HEPES 25 mM, sodium bicarbonate 3.7 g/L, Pen/Strep 1× and Ciprofloxacin 10 μg/ml pH 7.4 at 37° C.). Crypts and individual cells were isolated with a […] nylon strainer, spun down at 200 g for 5 minutes, resuspended into 10 ml of DMEM complete media and plated into 20 wells of a 24-well plate coated with a 3D gel of 3 mg/ml Matrigel (BD, Biosciences, Oxford, UK). After one day of incubation at 37° C. 5% CO2 in a humidified incubator, cells were washed with 500 μl of warm HBSS, and treated with 250 μl DMEM serum free (Complete medium without FBS) additioned with KR-62436 10 μg/ml and individually the following drugs or compounds: Forskolin and IBMX (20 μM each), oleoyl-LPI, and the two oleoyl-LPI analogs and/or derivatives ps297b (prepared as described in example 13) and ps316a (prepared as described in example 22) were all tested in quadruplicate at 20 μM.
After a 2-hour long incubation at 37 C 5% CO2, the supernatants were collected on ice, and quickly stored at […]. Active GLP-1 levels (7-37 amide and 7-36) were quantified on 50 μl of supernatant with an ELISA commercial kit (EMD Millipore). DMSO was used as a negative control, the combination of Forskolin and IBMX was included as positive control activators GLP-1. GLP-1 levels measured were standardized against the DMSO control.
The EC50 levels each one of oleoyl-LPI, compound ps297b and compound ps316a were also measured in quadruplicates at the conclusion of the 2 hour incubation. Guinea pig cells obtained as described above were also incubated with […] in quadruplicates and subjected to 2-hour long incubation at 37 C 5% CO2 as described above and EC50 levels measured.

For another test, the system named is Glutag cells. Put plainly: GLP-1 secretion by Glutag cells. Type of test: cell-based, murine. As to conditions: Glutag cells, inhibitor 1 hour before oleoyl-LPI (PD98059 50 μM; H89 10 μM). How it is done: Glutag cells were maintained in low glucose DMEM (Sigma) (1 g/L) containing 2.0 mM L-glutamine, 1.0 mM sodium pyruvate and supplemented with 10% FBS, 100 IU/ml penicillin, 100 μg/ml streptomycin at a 37° C. and 5% CO2.
as §1
(§2) In separate studies, GLUTag or NCI-H716 cells were pre-treated for 1 hour with medium alone (1% DMSO, negative control), PD98059 (50 μM; Sigma Chemical Co.), H89 (10 μM; Santa Cruz) followed by treatment with oleoyl-LPI (20 μM), OEA (10 μM), AR231453(1 μM), PMA (10 μM) or forskolin (10 μM, positive control) in the presence of inhibitors, as appropriate, for about 2 h. Medium GLP-1 secretion was calculated as total GLP-1 content of medium normalised for the basal secretion of the control.
(§3) In order to investigate the role of different LPI species in enteroendocrine cells, murine (Glutag) and human (NCI-H716) L-cells were stimulated with the following different species of LPI: Arachidonyl-LPI, Stearoyl-LPI, Heptadecenoyl-LPI and oleoyl-LPI, as well as with OEA and LPC. Experiments were performed in duplicate, n=4 and the level of total GLP-1 was measured by ELISA.

For the next test, the system named is NCI-H716 cells. As to the kind of experiment: GLP-1 secretion by NCI-H716 cells (Examples 2-8). The following applies: NCI-H716 cells, inhibitor 1 hour before oleoyl-LPI (PD98059 50 μM; H89 10 μM). Type of test: cell-based, human. The method, then:
NCI-H716 cells were maintained in 75 cm^2 tissue culture flasks (Corning) in RPMI 1640 media containing 2.0 mM L-glutamine, 1.5 g/L sodium bicarbonate, 10 mM HEPES buffer, 1.0 mM sodium pyruvate, and 4.5 g/L glucose and supplemented with 10% FBS at a 37° C. and 5% CO2. When plating for experiment, cell adhesion and endocrine differentiation were initiated by growing cells in dishes coated with growth factor reduced Matrigel diluted at the ratio of 1:2 (Becton Dickinson, Bedford, MA) in high-glucose DMEM, 10% FBS, 2 mM glutamine, 100 IU/ml penicillin, and 100 μg/ml streptomycin as described previously by De Bruine, a P., Dinjens, W. N., van der Linden, E. P., Pijls, M. M., Moerkerk, P. T., & Bosman, F. T. (1993) The American Journal of Pathology, Vol 142(3), pp 773-782, the disclosure of which is incorporated herein in its entirety by reference.
as §1, §2, §3

In a further test the test system is CREB. As to the kind of experiment: CREB phosphorylation by Western blot. Type of test: cell-based. As to conditions: H89 10 μM pre-treatment or oleoyl-LPI in control cells. The method, then: When cell cultures reached 80-90%, media were removed and cells were washed twice with 1×PBS. The cells were lysed in 150 μl (for one well of a 6 well plate) of Triton X-100 lysis buffer, containing phosphatase inhibitor cocktail (1:1000) (Sigma Aldrich, UK) and protease inhibitor (1:1000, Sigma Aldrich, UK). Cells were detached with scrapers and lysate were collected and centrifuged at 10,000 rpm, 4° C. for 5 minutes. The supernatant was then transferred to a 1.5 ml microcentrifuge tube and used for protein quantification. Cell lysates were stored at −20° C. for longer storage. All lysates were prepared on ice.
Non-specific antibody binding was prevented by incubating the nitrocellulose membrane in 5% milk in PBS-0.05% Tween-20 (v/v) for 30 minutes on a rotating plate. The membrane was then washed in PBS-0.05% Tween-20 (v/v) and then incubated with the primary antibody diluted in PBS-0.05% Tween-20 (v/v) on a rotating plate overnight at 4° C. After 24 hours, the membrane was washed 5× for 5 minutes with PBS-0.05% Tween-20 (v/v), and then incubated on a rotating plate with the appropriate secondary antibody for 1 hour at room temperature. […]
For orientation: In western blotting, separated proteins are transferred to a membrane and probed.

SMILES strings stand for the structures.

As to `CCCCCCCC/C=C\CCCCCCCC(=O)NCCO` [OEA, Oleoylethanolamide], the values for the concentration for a half-maximal effect (EC50) (at human GPR119; in test [2]) were 0.422 µM and 30.7 µM, respectively. The compound further registered a GLP-1 secretion in test [1] (5 mM glucose, 50 μM, 2 hours, percentage of vehicle control) of 178±15%. In addition, in test [1] (10 mM glucose), the “GLP-1 secretion, dose response” value is “dose-dependently stimulate GLP-1 secretion in similar manner of oleoyl-LPI”.
Consider `O=S(=O)(NCCNC/C=C/c1ccc(Br)cc1)c1cccc2cnccc12` [H89], for which the “oleoyl-LPI induced GLP-1 secretion with inhibitor pre-treatment” value in the test with Glutag cells and in the test on NCI-H716 cells was “observable reduction in GLP-1 secretion” in each case. Also, the “phosphorylation of CREB” value with CREB is “inhibited”.

One may read the EC50 as the concentration giving half of the maximal effect.
